Legend:
[1] = Redox potential (redox potentiometry); type: physicochemical
From the text: The ability of quinone compounds to accept electrons from another substance (i.e., be reduced) may be quantified using a technique known as redox potentiometry. Redox potentiometry is a technique that measures (in volts) the affinity of a substance for electrons—its electronegativity—compared with hydrogen (which is set at 0). Substances more strongly electronegative than (i.e., capable of oxidizing) hydrogen have positive redox potentials. Substances less electronegative than (i.e., capable of reducing) hydrogen have negative redox potentials. The greater the difference between the redox potentials of two substances (ΔE), the greater the vigor with which electrons will flow spontaneously from the less positive to the more positive (more electronegative) substance. As is well known in the art, redox potential may be measured using any of a variety of commercially available meters, such as an Oxidation Reduction Potential (ORP) tester commercially available from Hanna Instruments, Inc. of Woonsocket, R. I. The redox potential of the quinone compounds may, for instance, be less than about −50 millivolts (mV), in some embodiments less than about −150 mV, in some embodiments less than about −300 mV, and in some embodiments, less than about −500 mV. Although not always the case, the redox potential may vary based on the number and location of functional groups, such as sulfonic acid, on the quinone structure. For example, 2-sulfonic acid anthraquinone has a redox potential of −380 mV; 2,6-disulfonic acid anthraquinone has a redox potential of −325 mV; and 2,7-disulfonic acid anthraquinone has a redox potential of −313 mV. Likewise, 2-sulfonic acid naphthaquinone has a redox potential of −60 mV. The use of other functional groups may also have an affect on the ultimate redox potential of the compound. For example, Acid Blue 25, which also contains amino- and aramid functional groups, has a redox potential of −605 mV.

[2] = Example 1 urine odor panel ranking; set-up: species or system Human; conditions: 8 millimolar in urine; for Avg. Ranking (odor) / Ranking 1 (number of panelists) / Ranking 3 (number of panelists) / Ranking 5 (number of panelists) / Ranking 4 (number of panelists) / Ranking 7 (number of panelists): 1 least, 10 most malodorous
From the text: Human female urine was initially collected and pooled by a nurse on staff at Kimberly-Clark Corporation. […] Powders of Acid Blue 129 and Acid Green 27 (commercially available from Sigma-Aldrich Chemical Co., Inc. of St. Louis, Mo.), as well as D&C Green No. 5 (commercially available from Noveon Hilton Davis, Inc. of Cincinnati, Ohio), were then weighed and placed into the mason jars containing 50 milliliters of urine so that the final concentration of the powder was 8 millimolar (equivalent to 0.5 wt. %). […] A score of “10” was assigned to the most malodorous jar and a score of “1” was assigned to the least malodorous jar.

[3] = Example 3 urine odor panel ranking; set-up: species or system Human; conditions: for Average Urine Odor Ranking (with statistical corrections), Avg. Score: ignoring statistical anomalies
Description: (§1) The effectiveness of various quinone compounds in reducing urine odor was compared. […] Human female urine was initially collected and pooled by a nurse on staff at Kimberly-Clark Corporation. The pooled urine was added to mason jars in 50-milliliter aliquots using an automated pipette aid. […] The mason jars were placed in an incubator overnight at 37° C.
(§2) In addition to ranking the jars from least to most malodorous (on a scale from 1 to 7, with 7 being the most malodors), panelists were also asked to judge whether there were secondary (non-urine) odors present and, if so, the extent that the secondary odors were unpleasant (on a scale from 1 to 5, with 5 being extremely unpleasant).
In this assessment, panelists were given instructions to rank the least malodorous jar as “1” and the most malodorous jar as “10,” remaining free to rank the other jars between 2-9.

[4] = Example 3 secondary (non-urine) odor ranking; set-up: species or system Human; conditions: individual panelist scores, scale 1 to 5, 5 extremely unpleasant
Description: as §1, §2

[5] = Example 5 urine odor panel ranking; set-up: species or system Human
Description: Assessments were conducted the following day by asking panelists to rate each jar from 1 (least urine malodor) to 8 (most urine malodor). The results are set forth below in Tables 15-18.

[6] = Example 6 urine odor panel ranking; set-up: species or system Human; conditions: as Example 5, 1 least, 8 most urine malodor
From the text: The quinone compounds chosen for this example were Alizarin Blue Black B, Remazol Brilliant Blue R and Acid Green 25. The results are set forth below in Tables 19 and 20.

[7] = Example 7 urine odor panel ranking (16 millimolar); set-up: species or system Human; conditions: 16 millimolar in urine, 1 least, 10 most urine malodor
Description: The effectiveness of various quinone compounds in reducing urine odor was compared. […] Human female urine was initially collected and pooled at Kimberly-Clark Corporation. The pooled urine was added to mason jars in 50-milliliter aliquots using an automated pipette aid. Powders of the aforementioned quinone compounds (commercially available from Sigma-Aldrich Chemical Co., Inc. of St. Louis, Missouri and Noveon Hilton Davis, Inc. of Cincinnati, Ohio) were weighed and placed into the mason jars containing 50 milliliters of urine so that the final concentration of the powder was 16 millimolar (equivalent to 1 wt. %). The mason jars were placed in an incubator overnight at 37° C. The experimental setup is set forth in more detail below in Table 21.
Jars were wrapped in foil and placed in an incubator at 37° C. overnight. The jars were divided into four groups (C-F), each sharing the same control jar of urine alone (no powder). Assessments were conducted the following day by asking panelists to rate each jar from 1 (least urine malodor) to 10 (most urine malodor).

[8] = Solubility of powder in urine
[9] = Example 3 second grouping, 8 millimolar in urine, 1 least malodorous
[10] = Example 3 top performers of both groupings, after 24 hours, 1 least, 10 most malodorous
[11] = Example 3 top performers, after 24 hours, 1 least, 10 most malodorous
[12] = Example 3 top performers, after 24 hours
[13] = Example 5 Group B, 8 mM in urine, 1 least, 8 most urine malodor
[14] = Example 5, 8 mM in 50 milliliters of urine
[15] = Example 7, 16 mM in 50 milliliters of urine
[16] = Example 5 Group A, 8 mM in urine, 1 least, 8 most urine malodor
[17] = Example 3 first grouping, 8 millimolar in urine, scale 1 to 7, 7 most malodorous

## O=C1c2ccc(S(=O)(=O)O)cc2C(=O)c2cc(S(=O)(=O)O)ccc21 [2,7-disulfonic acid anthraquinone]
[1]
  redox potential: −313 mV

## Cc1ccc(Nc2ccc(Nc3ccc(C)cc3S(=O)(=O)[O-])c3c2C(=O)c2ccccc2C3=O)c(S(=O)(=O)[O-])c1.[Na+].[Na+] [D&C Green No. 5]
[2]
  reducing urine malodor (in words): functioned effectively in reducing urine malodor
[2]; after 6 hours
  Avg. Ranking (odor): 3.0
  Ranking 1 (number of panelists): 1
  Ranking 3 (number of panelists): 3
  Ranking 5 (number of panelists): 1
[2]; after 24 hours
  Avg. Ranking (odor): 5.2
  Ranking 4 (number of panelists): 3
  Ranking 5 (number of panelists): 1
  Ranking 7 (number of panelists): 2
[3]; Example 3 second grouping
  urine odor reduction (in words): did not perform as well compared to the other quinone compounds
[3]; [9]
  Urine Odor Ranking 4 (number of panelists): 3
  Urine Odor Ranking 5 (number of panelists): 2
[3]; [10]
  Urine Odor Ranking 2 (number of panelists): 1
  Urine Odor Ranking 4 (number of panelists): 1
  Urine Odor Ranking 7 (number of panelists): 2
  Urine Odor Ranking 10 (number of panelists): 1
[3]; [11]
  Average Urine Odor Ranking, Avg. Score: 6.0
[3]; [12]
  Average Urine Odor Ranking (with statistical corrections), Avg. Score: 7.0
[4]; Example 3 second grouping
  Secondary Odor Ranking: 4
[4]; [12]
  Secondary Odor Ranking: 4
[5]; Example 5 Group B
  odor reduction performance (in words): performed well
[5]; [13]
  Average Rankings (Group B), Avg. Score: 4.25
  Urine Odor Ranking 2 (number of panelists): 1
  Urine Odor Ranking 3 (number of panelists): 1
  Urine Odor Ranking 5 (number of panelists): 1
  Urine Odor Ranking 7 (number of panelists): 1
[6]
  Average Rankings, Avg. Score: 6.25
  Urine Odor Ranking 5 (number of panelists): 2
  Urine Odor Ranking 7 (number of panelists): 1
  Urine Odor Ranking 8 (number of panelists): 1
[7]; Example 7 Group D
  Average Rankings (Group D), Avg. Score: 7
  Urine Odor Ranking 5 (number of panelists): 2
  Urine Odor Ranking 7 (number of panelists): 1
  Urine Odor Ranking 9 (number of panelists): 2
[8]; [14]
  Soluble?: Yes
[8]; [15]
  Soluble?: Yes

## CCCCc1ccc(Nc2ccc(Nc3ccc(CCCC)cc3S(=O)(=O)[O-])c3c2C(=O)c2ccccc2C3=O)c(S(=O)(=O)[O-])c1.[Na+].[Na+] [Acid Green 27]
[2]
  reducing urine malodor (in words): functioned effectively in reducing urine malodor
[2]; after 6 hours
  Avg. Ranking (odor): 4.4
  Ranking 4 (number of panelists): 3
  Ranking 5 (number of panelists): 2
[2]; after 24 hours
  Avg. Ranking (odor): 4.5
  Ranking 1 (number of panelists): 1
  Ranking 3 (number of panelists): 2
  Ranking 7 (number of panelists): 3
[3]; [9]
  Average Urine Odor Ranking, Avg. Score: 3.6
  Urine Odor Ranking 2 (number of panelists): 2
  Urine Odor Ranking 4 (number of panelists): 1
  Urine Odor Ranking 5 (number of panelists): 2
[3]; [10]
  Urine Odor Ranking 2 (number of panelists): 1
  Urine Odor Ranking 8 (number of panelists): 2
  Urine Odor Ranking 9 (number of panelists): 1
  Urine Odor Ranking 10 (number of panelists): 1
[3]; [11]
  Average Urine Odor Ranking, Avg. Score: 6.4
[3]; [12]
  Average Urine Odor Ranking (with statistical corrections), Avg. Score: 8.8
[4]; Example 3 second grouping
  Secondary Odor Ranking: 2
[4]; [12]
  Secondary Odor Ranking: 4
[5]; [16]
  Average Rankings (Group A), Avg. Score: 4.25
  Urine Odor Ranking 3 (number of panelists): 1
  Urine Odor Ranking 4 (number of panelists): 2
  Urine Odor Ranking 6 (number of panelists): 1
[7]; Example 7 Group E
  Average Rankings (Group E), Avg. Score: 6.2
  Urine Odor Ranking 1 (number of panelists): 1
  Urine Odor Ranking 5 (number of panelists): 1
  Urine Odor Ranking 7 (number of panelists): 1
  Urine Odor Ranking 8 (number of panelists): 1
  Urine Odor Ranking 10 (number of panelists): 1
[8]; [14]
  Soluble?: Mostly
[8]; [15]
  Soluble?: Mostly

## Cc1ccc(Nc2ccc(Nc3ccc(C)cc3S(=O)(=O)[O-])c3c2C(=O)c2c(O)ccc(O)c2C3=O)c(S(=O)(=O)[O-])c1.[Na+].[Na+] [Acid Green 41]
[3]; Example 3 first grouping
  urine odor reduction (in words): functioned effectively to reduce odor
[3]; [17]
  Average Urine Odor Ranking, Avg. Score: 2.4
  Urine Odor Ranking 1 (number of panelists): 1
  Urine Odor Ranking 2 (number of panelists): 2
  Urine Odor Ranking 3 (number of panelists): 1
  Urine Odor Ranking 4 (number of panelists): 1
[3]; [10]
  Urine Odor Ranking 1 (number of panelists): 1
  Urine Odor Ranking 2 (number of panelists): 2
  Urine Odor Ranking 3 (number of panelists): 1
  Urine Odor Ranking 7 (number of panelists): 1
[3]; [12]
  odor reduction (in words): achieved the best odor reduction
  Average Urine Odor Ranking (with statistical corrections), Avg. Score: 2.0
[3]; [11]
  Average Urine Odor Ranking, Avg. Score: 3.0
[4]; Example 3 first grouping
  Secondary Odor Ranking: 1
[5]; [16]
  Average Rankings (Group A), Avg. Score: 4.25
  Urine Odor Ranking 2 (number of panelists): 1
  Urine Odor Ranking 3 (number of panelists): 1
  Urine Odor Ranking 5 (number of panelists): 1
  Urine Odor Ranking 7 (number of panelists): 1
[6]
  Average Rankings, Avg. Score: 5.25
  Urine Odor Ranking 3 (number of panelists): 1
  Urine Odor Ranking 4 (number of panelists): 1
  Urine Odor Ranking 6 (number of panelists): 1
  Urine Odor Ranking 8 (number of panelists): 1
[7]; Example 7 Group D
  Average Rankings (Group D), Avg. Score: 1.4
  Urine Odor Ranking 1 (number of panelists): 4
  Urine Odor Ranking 3 (number of panelists): 1
[8]; [14]
  Soluble?: Yes
[8]; [15]
  Soluble?: Yes

Source: patent US20070048247A1, “Deodorizing tablets” (Kimberly-Clark Worldwide, Inc., priority 2005, published 2007)
